US20230081132A1 (priority 2021, published 2023)
Values after ≈ are worked out from the molar mass of the structure shown. Values joined by “and” are separate entries in the source; they are usually repeats but may differ in a detail not shown here. Identical values can stand only once.

Tests used:
Type in all cases: binding
TTX monoclonal antibody [1] = system: TTX monoclonal antibody
TTX monoclonal antibody [2] = system: TTX monoclonal antibody; remark: listed apart in the source
TTX monoclonal antibody [3] = system: TTX monoclonal antibody; remark: listed apart in the source

Compound	FLT (a.u.) (TTX monoclonal antibody [1])	IC50 (TTX monoclonal antibody [2]) [ng/mL]	competitive inhibition rate (1-T/T0) (TTX monoclonal antibody [3])	fluorescence signal value of detection line (TTX monoclonal antibody [3]) [a.u.]
C/C(=C/C=C/[C@@H](C)C(=O)O)[C@H]1CN[C@H](C(=O)O)[C@H]1CC(=O)O [DA]	503422 a.u. and 504729 a.u. and 501687 a.u. and 506770 a.u. and 503922 a.u. and 508625 a.u.			
NC1=N[C@H](O)[C@H]2[C@H]3O[C@]4(O)O[C@@H]([C@@H](O)[C@@]2(N1)[C@@H]4O)[C@]3(O)CO [TTX, Tetrodotoxin]		1.713 (≈ 5.37 nM)	0.3	343000
MC-LR	452864 a.u. and 478692 a.u. and 475179 a.u. and 469265 a.u. and 465390 a.u. and 480375 a.u.			
